Measurements published in PMC9609070 (ACS Omega, 2022).

Tests used:
[1] = neat water, x1=0.000; Thm=303.0 K; cited from earlier work
[2] = Preferential solvation analysis by inverse Kirkwood–Buff integrals; type: physicochemical; conditions: NMP+water, T=298.15 K

## Cc1cnc(NC(=O)C2=C(O)c3ccccc3S(=O)(=O)N2C)s1 [Meloxicam, 4-hydroxy-2-methyl-N-(5-methyl-2-thiazolyl)-2H-1,2-benzothiazine-3-carboxamide-1,1-dioxide]
[1]
  TΔsolnS°: –26.66 kJ·mol^–1
  ΔsolnG° (apparent Gibbs energy of dissolution): 34.35 kJ·mol^–1
  ΔsolnH° (apparent enthalpy of dissolution): 7.69 kJ·mol^–1
  ΔsolnS° (apparent entropy of dissolution): –87.99 J·mol^–1·K^–1
[2]; x1=0.00
  100 δx1,3 (preferential solvation parameter by NMP): 0.00
  D (derivative of Gibbs energy of transfer vs x1): –71.31 kJ·mol^–1
  G1,3 (Kirkwood–Buff integral): –702.7 cm^3·mol^–1
  G2,3 (Kirkwood–Buff integral): –182.2 cm^3·mol^–1
[2]; x1=0.05
  100 δx1,3 (preferential solvation parameter by NMP): –3.21
  D (derivative of Gibbs energy of transfer vs x1): –64.29 kJ·mol^–1
  G1,3 (Kirkwood–Buff integral): –669.9 cm^3·mol^–1
  G2,3 (Kirkwood–Buff integral): –311.3 cm^3·mol^–1
  δx1,3 (preferential solvation parameter by NMP): −3.21 × 10^–2
[2]; x1=0.10
  100 δx1,3 (preferential solvation parameter by NMP): –3.19
  D (derivative of Gibbs energy of transfer vs x1): –57.63 kJ·mol^–1
  G1,3 (Kirkwood–Buff integral): –596.6 cm^3·mol^–1
  G2,3 (Kirkwood–Buff integral): –417.0 cm^3·mol^–1
  δx1,3 (preferential solvation parameter by NMP): −3.19 × 10^–2
[2]; x1=0.15
  100 δx1,3 (preferential solvation parameter by NMP): –0.64
  D (derivative of Gibbs energy of transfer vs x1): –51.33 kJ·mol^–1
  G1,3 (Kirkwood–Buff integral): –513.2 cm^3·mol^–1
  G2,3 (Kirkwood–Buff integral): –484.4 cm^3·mol^–1
[2]; x1=0.20
  100 δx1,3 (preferential solvation parameter by NMP): 1.92
  D (derivative of Gibbs energy of transfer vs x1): –45.42 kJ·mol^–1
  G1,3 (Kirkwood–Buff integral): –438.6 cm^3·mol^–1
  G2,3 (Kirkwood–Buff integral): –519.2 cm^3·mol^–1
[2]; x1=0.25
  100 δx1,3 (preferential solvation parameter by NMP): 3.70
  D (derivative of Gibbs energy of transfer vs x1): –39.89 kJ·mol^–1
  G1,3 (Kirkwood–Buff integral): –378.9 cm^3·mol^–1
  G2,3 (Kirkwood–Buff integral): –532.6 cm^3·mol^–1
[2]; x1=0.30
  100 δx1,3 (preferential solvation parameter by NMP): 4.75
  D (derivative of Gibbs energy of transfer vs x1): –34.76 kJ·mol^–1
  G1,3 (Kirkwood–Buff integral): –332.9 cm^3·mol^–1
  G2,3 (Kirkwood–Buff integral): –533.5 cm^3·mol^–1
[2]; x1=0.35
  100 δx1,3 (preferential solvation parameter by NMP): 5.27
  D (derivative of Gibbs energy of transfer vs x1): –30.04 kJ·mol^–1
  G1,3 (Kirkwood–Buff integral): –298.0 cm^3·mol^–1
  G2,3 (Kirkwood–Buff integral): –527.4 cm^3·mol^–1
[2]; x1=0.40 (maximum)
  δx1,3 (preferential solvation parameter by NMP): 5.41 × 10^–2
[2]; x1=0.40
  100 δx1,3 (preferential solvation parameter by NMP): 5.41
  D (derivative of Gibbs energy of transfer vs x1): –25.73 kJ·mol^–1
  G1,3 (Kirkwood–Buff integral): –271.3 cm^3·mol^–1
  G2,3 (Kirkwood–Buff integral): –517.0 cm^3·mol^–1
[2]; x1=0.45
  100 δx1,3 (preferential solvation parameter by NMP): 5.28
  D (derivative of Gibbs energy of transfer vs x1): –21.85 kJ·mol^–1
  G1,3 (Kirkwood–Buff integral): –250.7 cm^3·mol^–1
  G2,3 (Kirkwood–Buff integral): –503.6 cm^3·mol^–1
[2]; x1=0.50
  100 δx1,3 (preferential solvation parameter by NMP): 4.96
  D (derivative of Gibbs energy of transfer vs x1): –18.40 kJ·mol^–1
  G1,3 (Kirkwood–Buff integral): –234.5 cm^3·mol^–1
  G2,3 (Kirkwood–Buff integral): –487.7 cm^3·mol^–1
[2]; x1=0.55
  100 δx1,3 (preferential solvation parameter by NMP): 4.49
  D (derivative of Gibbs energy of transfer vs x1): –15.39 kJ·mol^–1
  G1,3 (Kirkwood–Buff integral): –221.7 cm^3·mol^–1
  G2,3 (Kirkwood–Buff integral): –469.5 cm^3·mol^–1
[2]; x1=0.60
  100 δx1,3 (preferential solvation parameter by NMP): 3.93
  D (derivative of Gibbs energy of transfer vs x1): –12.84 kJ·mol^–1
  G1,3 (Kirkwood–Buff integral): –211.6 cm^3·mol^–1
  G2,3 (Kirkwood–Buff integral): –449.4 cm^3·mol^–1
[2]; x1=0.65
  100 δx1,3 (preferential solvation parameter by NMP): 3.34
  D (derivative of Gibbs energy of transfer vs x1): –10.75 kJ·mol^–1
  G1,3 (Kirkwood–Buff integral): –203.7 cm^3·mol^–1
  G2,3 (Kirkwood–Buff integral): –428.7 cm^3·mol^–1
[2]; x1=0.70
  100 δx1,3 (preferential solvation parameter by NMP): 2.76
  D (derivative of Gibbs energy of transfer vs x1): –9.13 kJ·mol^–1
  G1,3 (Kirkwood–Buff integral): –197.7 cm^3·mol^–1
  G2,3 (Kirkwood–Buff integral): –409.5 cm^3·mol^–1
[2]; x1=0.75
  100 δx1,3 (preferential solvation parameter by NMP): 2.24
  D (derivative of Gibbs energy of transfer vs x1): –7.99 kJ·mol^–1
  G1,3 (Kirkwood–Buff integral): –193.3 cm^3·mol^–1
  G2,3 (Kirkwood–Buff integral): –394.9 cm^3·mol^–1
[2]; x1=0.80
  100 δx1,3 (preferential solvation parameter by NMP): 1.81
  D (derivative of Gibbs energy of transfer vs x1): –7.33 kJ·mol^–1
  G1,3 (Kirkwood–Buff integral): –190.1 cm^3·mol^–1
  G2,3 (Kirkwood–Buff integral): –388.5 cm^3·mol^–1
[2]; x1=0.85
  100 δx1,3 (preferential solvation parameter by NMP): 1.44
  D (derivative of Gibbs energy of transfer vs x1): –7.18 kJ·mol^–1
